Publication PMC7717691, “Design, synthesis, and anticonvulsant effects evaluation of nonimidazole histamine H3 receptor antagonists/inverse agonists containing triazole moiety” (Journal of Enzyme Inhibition and Medicinal Chemistry, 2020)
Where a name gives a salt, the structure may show the parent alone. Read-outs that look alike come from different tables or passages of the source.

What was measured:
H3R = biological target: T1, H3R (Homo sapiens, UniProt Q9Y5N1); assay: CRE-driven luciferase reporter gene assay, H3R antagonistic activity; format: cell-based; conditions: for % Antagonism 100 nM: 100 nM compound; for % Antagonism 100 nM / % Antagonism 1 μM: HEK-293 cells expressing human H3R, mean ± SD of three experiments; for % Antagonism 1 μM: 1 μM compound; for IC50: CRE luciferase assay, HEK-293 cells, Table 1
T1 construct: expressed in transfected cells
Protocol: cAMP-response element (CRE) reporter gene assay has been extensively used to evaluate the efficacy of GPCR antagonists or agonists. […] Initially, compounds and positive controls were tested at two concentrations (100 nM and 1 µM) to obtain the preliminary investigation of their H3R antagonistic activities. In the assays, the antagonistic activities was positively correlated with the rise of the fluorescence value and indicated by the % antagonism. For the prominent compounds IC50 values were determined at additional assays.
Human thalamus poly-A RNA (Clontech, Palo Alto, CA, USA) was used to clone the hH3R gene by RT-PCR. DNA PCR primers were designed in the light of the reported human histamine receptor gene sequences (GenBank accession no.AF140538). HEK-293 cells were cultured and transfected for the luciferase assay. The detailed procedures were described in the previous publication.
Stable HEK-293 cells, which had been co-transfected with H3R and pCRE-Luc, were seeded in a 96-well plate overnight, and were grown to 90–95% confluence[43]^,[44]. Then the cells were treated with various concentrations of tested compounds in serum-free DMEM and incubated for 20 min. Cells were then stimulated with 100 nM Histamine in serum-free DMEM containing 2 µM Forskolin and incubated for 4 h at 37 °C. Firefly luciferase assay kits (Ken-real, Shanghai, China) were used to determine the luciferase activity.

intracellular cAMP = assay: Effect of compounds administrated alone on the level of intracellular cAMP; format: cell-based; conditions: for effect on the level of cAMP when treated alone: compound alone, ANOVA followed by Dunnett's test, Figure 2
Excerpt: It is well known that H3R is a GPCR coupled with Gαi. When the ligand (histamine) binds to H3R, the dissociated Gαi inhibits the activity of adenylate cyclase (AC) and down-regulates the level of intracellular cAMP. In this CREs driven luciferase assay, when cells were pre-treated by H3R antagonists, the downregulation of cAMP would be inhibited, and the level of intracellular cAMP would regain to the initial level.

MES [1] = conditions: cited from earlier work
PTZ = conditions: cited from earlier work
MES-induced convulsions = MES-induced convulsions model; format: in vivo; conditions: mice; for protection against MES-induced convulsions (reduction or abolition of THLE): 10 mg/kg, i.p., 30 min before stimulation, vs saline group
Excerpt: Protection for the mice was defined as the reduction or abolition of the tonic hind limb extension (THLE) in the MES model in mice.
Ear stimulation with alternating current (0.2 s, 60 Hz, 50 mA) was used to induce the seizures in mice. The reduction or abolition of the hind limb tonic extension (THLE) of mice was considered protective against the MES-induced seizures[29]^,[48]. […]

MES [2] = conditions: cited from earlier work; remark: listed apart in the source

T1 sequence (Q9Y5N1 whole entry): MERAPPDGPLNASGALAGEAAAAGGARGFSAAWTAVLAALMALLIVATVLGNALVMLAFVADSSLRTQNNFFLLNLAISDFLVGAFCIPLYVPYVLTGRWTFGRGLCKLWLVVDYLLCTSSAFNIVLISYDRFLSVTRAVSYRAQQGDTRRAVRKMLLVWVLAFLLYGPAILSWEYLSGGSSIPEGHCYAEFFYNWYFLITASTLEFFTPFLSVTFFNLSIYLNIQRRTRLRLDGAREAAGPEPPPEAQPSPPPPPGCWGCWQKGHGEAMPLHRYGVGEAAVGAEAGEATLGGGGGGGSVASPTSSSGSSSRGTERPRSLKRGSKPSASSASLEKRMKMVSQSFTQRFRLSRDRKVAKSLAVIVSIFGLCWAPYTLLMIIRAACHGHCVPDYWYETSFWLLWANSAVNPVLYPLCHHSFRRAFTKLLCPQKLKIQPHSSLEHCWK

Compound	melting point [°C]	% Antagonism 100 nM (H3R) [%]	% Antagonism 1 μM (H3R) [%]	protection against MES-induced convulsions (reduction or abolition of THLE) (MES-induced convulsions)	other results
O=C(c1ccc(OCCCc2cnc[nH]2)cc1)C1CC1 [CPX, ciproxifan, reference compound]	–	33.96 ± 8.59	63.05 ± 9.33	–	effect on the level of cAMP when treated alone (intracellular cAMP): no significant effects
NC(=NCc1ccc(Cl)cc1)SCCCc1cnc[nH]1 [Clobenpropit]	–	–	–	–	MES (mice) (MES [1]; 0.3, 1, 3 mg/kg i.p.): protection; PTZ (rats) (PTZ; 10 μg & 20 μg icv): protection
CCN(CC)CCCOc1ccc(-n2cnnc2)cc1.Cl [Compound 3a, 3-(4-(4H-1,2,4-triazol-4-yl)phenoxy)-N,N-diethylpropan-1-amine hydrochloride]	105 to 106	49.85 ± 9.73	223.76 ± 7.56	moderate protection	IC50 (H3R): 2990 nM; effect on the level of cAMP when treated alone (intracellular cAMP): no significant effects
CCCN(CCC)CCCOc1ccc(-n2cnnc2)cc1.Cl [Compound 3b, 3-(4-(4H-1,2,4-triazol-4-yl)phenoxy)-N,N-dipropylpropan-1-amine hydrochloride]	180 to 183	13.24 ± 4.83	15.02 ± 4.03	–	–
CCC(C)(C)c1ccc(OCCCN2CCCCC2)cc1 [DL-77]	–	–	–	–	MES (rats) (MES [2]; 5, 10, 15 mg/kg): protection
O=C1NC(c2ccccc2)(c2ccccc2)C(=O)N1CCCN1CCCCC1 [H3R ligand I]	–	–	–	–	PTZ (rats) (PTZ; 10 mg/kg i.p.): protection; MES (rats) (MES [2]; 1 mg/kg i.p.): protection
NCCc1c[nH]cn1 [Histamine]	–	–	–	–	effect on the level of cAMP when treated alone (intracellular cAMP): no significant effects
CCCCCCOc1ccc(-n2cnnc2)cc1 [III]	–	–	–	–	MES (mice) (MES [1]; 10 mg/kg i.p.): protection
C[C@@H](N)Cc1cnc[nH]1 [RAMH, R-(α)-methyl-histamine, reference compound]	–	–	–	–	effect on duration of THLE, administered alone (MES-induced convulsions; 10 mg/kg i.p. alone, p > 0.05 vs saline): did not affect the duration of THLE
C=C[C@@]1(C)CC(=O)[C@]2(O)[C@@]3(C)[C@@H](O)CCC(C)(C)[C@@H]3[C@H](O)[C@H](OC(C)=O)[C@@]2(C)O1 [forskolin, reference compound]	–	–	–	–	rise of the cAMP level compared to the control group (intracellular cAMP; forskolin 2 µM): more than 200 times

Continued, in another order:

melting point [°C]	% Antagonism 100 nM (H3R) [%]	% Antagonism 1 μM (H3R) [%]	Compound	protection against MES-induced convulsions (reduction or abolition of THLE) (MES-induced convulsions)	other results
70 to 74	–	–	c1cc(-n2cnnc2)ccc1OCCCCCN1CCCCC1 (as salt: HCl) [Compound 3q, 1-(5-(4-(4H-1,2,4-triazol-4-yl)phenoxy)pentyl)piperidine]	–	–
120 to 122	32.23 ± 5.69	143.98 ± 16.16	Cl.c1cc(-n2cnnc2)ccc1OCCCN1CCCC1 [Compound 3c, 4-(4-(3-(pyrrolidin-1-yl)propoxy)phenyl)-4H-1,2,4-triazole hydrochloride]	did not achieve a significant difference from the control group	IC50 (H3R): 553 nM; effect on the level of cAMP when treated alone (intracellular cAMP): no significant effects
146 to 148	11.33 ± 5.86	79.4 ± 4.50	Cl.Cl.c1cc(-n2cnnc2)ccc1OCCCN1CCNCC1 [Compound 3d, 1-(3-(4-(4H-1,2,4-triazol-4-yl)phenoxy)propyl)piperazine dihydrochloride]	–	–
220 to 223	9.86 ± 0.87	21.78 ± 3.04	CN1CCN(CCCOc2ccc(-n3cnnc3)cc2)CC1.Cl [Compound 3e, 1-(3-(4-(4H-1,2,4-triazol-4-yl)phenoxy)propyl)-4-methylpiperazine hydrochloride]	–	–
172 to 174	9.96 ± 10.9	24.41 ± 6.30	c1ccc(N2CCN(CCCOc3ccc(-n4cnnc4)cc3)CC2)cc1 [Compound 3f, 1-(3-(4-(4H-1,2,4-triazol-4-yl)phenoxy)propyl)-4-phenylpiperazine]	–	–
237 to 239	−0.76 ± 4.87	20.24 ± 7.56	Cl.c1cc(-n2cnnc2)ccc1OCCCN1CCOCC1 [Compound 3g, 4-(3-(4-(4H-1,2,4-triazol-4-yl)phenoxy)propyl)morpholine hydrochloride]	moderate protection	–
249 to 252	10.56 ± 7.94	239.79 ± 3.17	c1cc(-n2cnnc2)ccc1OCCCN1CCCCC1 [Compound 3h, 1–(3-(4-(4H-1,2,4-triazol-4-yl)phenoxy)propyl)piperidine]	moderate protection	IC50 (H3R): 127 nM; effect on the level of cAMP when treated alone (intracellular cAMP): no significant effects
124 to 126	5.19 ± 2.06	16.45 ± 1.90	c1ccc(C2CCN(CCCOc3ccc(-n4cnnc4)cc3)CC2)cc1 [Compound 3i, 1-(3-(4-(4H-1,2,4-triazol-4-yl)phenoxy)propyl)-4-phenylpiperidine]	–	–
196 to 198	−4.2 ± 3.11	6.12 ± 2.05	NC(=O)C1CCN(CCCOc2ccc(-n3cnnc3)cc2)CC1 [Compound 3j, 1-(3-(4-(4H-1,2,4-triazol-4-yl)phenoxy)propyl)piperidine-4-carboxamide]	–	–
240 to 242	133.91 ± 8.91	183.54 ± 14.41	Cc1nncn1-c1ccc(OCCCN2CCCCC2)cc1.Cl [Compound 3k, 1-(3-(4–(3-methyl-4H-1,2,4-triazol-4-yl)phenoxy)propyl)piperidine hydrochloride]	did not achieve a significant difference from the control group	IC50 (H3R): 21 nM; effect on the level of cAMP when treated alone (intracellular cAMP): no significant effects
88 to 90	148.62 ± 4.43	169.04 ± 15.04	c1ccc(-c2nncn2-c2ccc(OCCCN3CCCCC3)cc2)cc1 [Compound 3l, 1-(3-(4-(3-phenyl-4H-1,2,4-triazol-4-yl)phenoxy)propyl)piperidine]	moderate protection	IC50 (H3R): 7.81 nM; effect on the level of cAMP when treated alone (intracellular cAMP): no significant effects
66 to 68	1.03 ± 7.79	3.36 ± 1.27	c1ccc(-c2ccc(-c3nncn3-c3ccc(OCCCN4CCCCC4)cc3)cc2)cc1 [Compound 3n, 1-(3-(4-(3-([1,1’-biphenyl]-4-yl)-4H-1,2,4-triazol-4-yl)phenoxy)propyl)piperidine]	–	–
85 to 87	45.04 ± 3.61	94.20 ± 2.60	Cl.c1cc(-n2cnnc2)ccc1OCCN1CCCCC1 [Compound 3o, 1-(2-(4–(4H-1,2,4-triazol-4-yl)phenoxy)ethyl)piperidine hydrochloride]	moderate protection	IC50 (H3R): 250 nM
80 to 82	25.00 ± 3.95	90.52 ± 5.71	Cl.c1cc(-n2cnnc2)ccc1OCCCCN1CCCCC1 [Compound 3p, 1-(4–(4-(4H-1,2,4-triazol-4-yl)phenoxy)butyl)piperidine hydrochloride]	did not achieve a significant difference from the control group	IC50 (H3R): 3440 nM
–	1.88 ± 12.38	2.39 ± 13.85	c1cc(-n2cnnc2)ccc1OCCCCCN1CCCCC1 [Compound 3q, 1-(5-(4-(4H-1,2,4-triazol-4-yl)phenoxy)pentyl)piperidine]	–	–
